Counter-ions that a name gives are not always drawn.

In the assay the target is Coagulation factor XI (Homo sapiens, UniProt P03951). Kind of assay: human FXIa inhibitor potency, dose response, biochemical (AID 679).
Coagulation factor XI, sequence (P03951 19-387 limits assumed): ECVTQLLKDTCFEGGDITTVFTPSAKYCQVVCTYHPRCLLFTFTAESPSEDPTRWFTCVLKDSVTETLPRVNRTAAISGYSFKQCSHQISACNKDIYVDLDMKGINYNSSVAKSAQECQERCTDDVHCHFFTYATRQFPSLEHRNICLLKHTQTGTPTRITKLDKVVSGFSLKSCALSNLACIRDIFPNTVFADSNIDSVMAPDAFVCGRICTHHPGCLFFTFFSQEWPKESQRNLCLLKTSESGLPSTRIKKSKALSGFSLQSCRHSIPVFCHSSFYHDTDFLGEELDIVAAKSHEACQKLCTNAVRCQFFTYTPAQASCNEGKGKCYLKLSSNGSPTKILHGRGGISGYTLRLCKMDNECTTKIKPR
Coagulation factor XI, sequence (P03951 388-625 limits assumed): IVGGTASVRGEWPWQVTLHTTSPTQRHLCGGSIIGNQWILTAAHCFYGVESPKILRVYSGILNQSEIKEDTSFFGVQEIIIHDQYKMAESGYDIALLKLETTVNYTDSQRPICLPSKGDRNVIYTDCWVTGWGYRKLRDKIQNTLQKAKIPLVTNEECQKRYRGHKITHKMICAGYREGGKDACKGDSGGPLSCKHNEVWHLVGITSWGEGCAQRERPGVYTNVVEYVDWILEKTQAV
For orientation: IC50 means the midpoint of a concentration-inhibition curve. Low values mean greater potency, high ones weaker potency. On to `O=c1nc(-c2ccccc2)c2cc(Cl)ccc2[nH]1`, for which the IC50 was more than 50 µM.

`O=S(=O)(Nc1cccc2nsnc12)c1ccccc1`: the IC50 was determined as 9.3 µM.

Compound `COc1ccc(S(=O)(=O)N2CCC(C(=O)N3CCc4ccccc4C3)CC2)cc1Cl` had an IC50 of 6.26 µM. The IC50 values of the last two compounds are within 1.5-fold of each other. As for `COc1ccc(Cn2nnnc2C(c2ccccc2Cl)N2CCC(C(N)=O)CC2)cc1` (stereo not drawn), the figure is more than 50 µM. As for `O=C(NC(C(=O)c1ccccc1)n1c(=O)cc[nH]c1=S)c1ccccc1` (stereo not drawn), the figure is more than 50 µM. As for `CNCCCc1ccccc1`, the IC50 is more than 50 µM. `COc1ccc(CC(=O)NCc2ccc3c(c2)OCO3)cc1` returned an IC50 of more than 50 µM. `Cc1ccc(NC(=O)CCn2cccc2)cc1` came in with an IC50 of more than 50 µM. Compound `CCCC1CCc2c(sc(N)c2C(N)=O)C1` (stereo not drawn) gave an IC50 of more than 50 µM. Take `CCN(CC)CCNC(=O)C(C)c1nn(C)c(=O)c2ccccc12` (stereo not drawn): the IC50 was more than 50 µM.

Turning to `N#Cc1cc2c(nc1SCC(=O)Nc1sc3c(c1C#N)CCC3)CCC2`, the IC50 was more than 50 µM.

`OCCCn1c(-c2ccccc2)nc(=S)c2c1CCCC2` showed an IC50 of more than 50 µM. Regarding `O=C(CCSc1nnc2ccc3ccccc3n12)Nc1ccc(F)cc1`, the IC50 was more than 50 µM. For `N#Cc1ccc(NC(=O)COC(=O)CNC(=O)C2CCCCC2)cc1`, the IC50 is more than 50 µM. `O=C(NCc1ccccc1)C1CCCN(S(=O)(=O)c2cccc3nonc23)C1` (stereo not drawn) [1-(2,1,3-benzoxadiazol-4-ylsulfonyl)-N-benzylpiperidine-3-carboxamide] showed an IC50 of more than 50 µM. As to `Cc1ccc(C(=O)n2nc(-c3cccnc3)nc2N)cc1` [1-(4-methylbenzoyl)-3-(3-pyridinyl)-1H-1,2,4-triazol-5-amine], the IC50 is more than 50 µM. Regarding `O=C(c1cn(-c2ccccc2)nc1-c1ccncc1)n1nnc2ccccc21` [1-{[1-phenyl-3-(4-pyridinyl)-1H-pyrazol-4-yl]carbonyl}-1H-1,2,3-benzotriazole], the IC50 turned out to be 0.707 µM. This lies in the sub-micromolar range. In the case of `CCn1nc(CC(=O)Nc2nnc(CC(=O)N3CCCC3)s2)c2ccccc2c1=O` [2-(3-ethyl-4-oxo-1-phthalazinyl)-N-[5-[2-oxo-2-(1-pyrrolidinyl)ethyl]-1,3,4-thiadiazol-2-yl]acetamide], the IC50 was more than 50 µM.

With `Cn1c(SCC(=O)NC2CCCCC2)nnc1-c1cccc(N)c1` [2-[5-(3-Amino-phenyl)-4-methyl-4H-[1,2,4]triazol-3-ylsulfanyl]-N-cyclohexyl-acetamide], the IC50 was more than 50 µM. Next, `CCC(CO)NCc1ccc(OC2CCCC2)cc1` (stereo not drawn) [2-[(4-cyclopentyloxyphenyl)methylamino]butan-1-ol;hydrochloride]: more than 50 µM; `Cc1ccccc1C(=O)N=c1sccn1C` [2-methyl-N-(3-methyl-1,3-thiazol-2-ylidene)benzamide]: more than 50 µM; `O=c1c(-c2cc3ccccc3o2)[n+]([O-])c2ccccc2n1OCc1ccccn1` [3-(1-benzofuran-2-yl)-1-(2-pyridinylmethoxy)-2(1H)-quinoxalinone 4-oxide]: more than 50 µM. `CCCc1nc2ccccc2c(=O)n1-c1ccc(OC)cc1` [3-(4-Methoxy-phenyl)-2-propyl-3H-quinazolin-4-one] had an IC50 of more than 50 µM. For `O=c1cccc2n1CC1CC2CN(S(=O)(=O)c2ccccc2)C1` (stereo not drawn) [3-Benzenesulfonyl-1,2,3,4,5,6-hexahydro-1,5-methano-pyrido[1,2-a][1,5]diazocin-8-one], the IC50 was more than 50 µM. The compound `COc1cc(OC)cc(-c2nnc(SCc3cccc(C(=O)O)c3)o2)c1` [3-[[5-(3,5-dimethoxyphenyl)-1,3,4-oxadiazol-2-yl]sulfanylmethyl]benzoic acid] registered an IC50 of more than 50 µM. As for `O=C(CCCN1C(=O)c2ccccc2C1=O)NCC1CCCO1` (stereo not drawn) [4-[1,3-bis(oxidanylidene)isoindol-2-yl]-N-(oxolan-2-ylmethyl)butanamide], the figure is 14.6 µM. Next, `COc1cc(OC)c2c(N)c(C#N)c(C(F)(F)C(F)(F)F)nc2c1` [4-azanyl-5,7-dimethoxy-2-[1,1,2,2,2-pentakis(fluoranyl)ethyl]quinoline-3-carbonitrile]: more than 50 µM; `O=C(Nc1ccccc1C(=O)N1CCOCC1)c1ccc(F)cc1` [4-fluoro-N-[2-[4-morpholinyl(oxo)methyl]phenyl]benzamide]: 21.4 µM. Next, `COc1ccc(OCCSc2nc[nH]n2)cc1` [5-[2-(4-methoxyphenoxy)ethylsulfanyl]-1H-1,2,4-triazole]: more than 50 µM; `Cc1cc(=O)[nH]c(-n2[nH]c(C)cc2=O)n1` [6-methyl-2-(3-methyl-5-oxo-2,5-dihydro-1H-pyrazol-1-yl)-4(3H)-pyrimidinone]: more than 50 µM. `COc1ccc2c(=O)cc(-c3ccccc3)n(C)c2c1` [7-methoxy-1-methyl-2-phenyl-4-quinolinone] came in with a concentration for half-maximal inhibition (IC50) of more than 50 µM. For `CCOc1cccc2cc(C(N)=O)/c(=N/Cc3ccccc3)oc12` [8-ethoxy-2-(phenylmethyl)imino-chromene-3-carboxamide], the IC50 is more than 50 µM. As to `CCc1ccc(CC2SC(=C(C#N)C(C)=O)NC2=O)cc1` (stereo not drawn) [(2E)-2-[5-[(4-ethylphenyl)methyl]-4-oxo-2-thiazolidinylidene]-3-oxobutanenitrile], the IC50 is more than 50 µM. As for `CC(C)c1nc2ccc(NC(=O)C3CCCCC3)cc2[nH]1` [Cyclohexanecarboxylic acid (2-isopropyl-1H-benzoimidazol-5-yl)-amide], the IC50 is more than 50 µM. For the compound `O=S(=O)(Cc1ccccc1)N1CCC(c2nc(-c3cccs3)no2)CC1` [MLS000027341], the IC50 was more than 50 µM. Next, `Cc1c(O)ccc(C(=O)CN2C(=O)c3ccccc3C2=O)c1O` [MLS000050535]: more than 50 µM; `CCOC(=O)c1c(C)n(Cc2ccccc2)c2ccc(OCC(O)Cn3nc(C)cc3C)cc12` (stereo not drawn) [MLS000121399]: more than 50 µM. `COc1cccc(C(=O)N(Cc2ccccc2)Cc2cc3cc4c(cc3nc2O)OCCO4)c1` [MLS000123157] showed an IC50 of 10.4 µM. As for `CCOc1ccc(S(=O)(=O)NCc2ccc(OC)cc2)c2cccnc12` [MLS000521584], the figure is more than 50 µM. In the case of `O=C(Oc1ccc2c(=O)c(Cl)coc2c1)c1cccnc1` [MLS000523505], the IC50 was more than 50 µM. With `Cc1ccc(C(=O)n2nnc3ccccc32)cc1` [MLS000527467], the IC50 is 2.39 µM. As for `CCC1(c2ccccc2)C(=O)N(C)C(=O)N(C)C1=O` [MLS000532164], the figure is more than 50 µM; as for `CC1=C(C(=O)OC(C)C)C(c2coc3ccccc3c2=O)C2C(=O)CCCC2=N1` (stereo not drawn) [MLS000533594], more than 50 µM. The compound `C=CCn1c(=O)c2c(nc(Br)n2Cc2ccccc2Cl)n(C)c1=O` [MLS000555959] showed an IC50 of 0.638 µM. This lies in the sub-micromolar range. The compound `Cc1c(NC(=O)c2cc3ccccc3o2)c(=O)n(-c2ccccc2)n1C` [MLS000556522] registered an IC50 of more than 50 µM. The compound `CCOc1cc(S(=O)(=O)N(Cc2ccccc2)Cc2ccccc2)c(OCC)cc1-n1cnnn1` [N,N-Dibenzyl-2,5-diethoxy-4-tetrazol-1-yl-benzenesulfonamide] returned an IC50 of more than 50 µM. As for `Cn1nnnc1SCC(=O)N(C1CCCCC1)C1CCCCC1` [N,N-dicyclohexyl-2-[(1-methyl-5-tetrazolyl)thio]acetamide], the figure is more than 50 µM. Compound `CCc1ccc(NC(=O)Cn2nc(C(F)(F)F)c3c2CCC3)cc1` [N-(4-Ethyl-phenyl)-2-(3-trifluoromethyl-5,6-dihydro-4H-cyclopentapyrazol-1-yl)-acetamide] displayed an IC50 of more than 50 µM.

Source of the values: BindingDB's records for doi:10.7270/Q2W957K6 (Pcmd, 2008).
